# Assay results taken from US5635510A, “Substituted pyrrolidin-3-yl-alkyl-piperidines” (Merrell Pharmaceuticals Inc., priority 1994, dated 1997).
# Experiments:
# NK1 receptor = biological target: T1, NK1 receptor (Homo sapiens, UniProt P25103); test: Antagonism of NK1 receptor mediated (SP-induced) phosphatidylinositol turnover in UC11 cells; type: cell-based
# T1 construct: antagonizes both NK1 (on UC11 cells); endogenous in cells; host or cells: UC11 cells
# Method: Tachykinin-mediated inositol phosphate accumulation was measured in UC11 or SKLKB82#3 cells in the presence and absence of NK1 or NK2 receptor antagonists, respectively. Tissues were incubated in Krebs-Henseleit buffer at 37° C. with 95% O2 -5% CO2 gassing. Tissues were then incubated with fresh buffer containing 100 μCi of myo-[2-3H(N)] inositol at 37° C. for 60 min with gentle gassing. After washing twice in 5 ml room temperature buffer containing 10 mM LiCl, tissues were incubated for 30 min at room temperature with a buffer change at 15 min. Buffer was removed and Krebs-Henseleit buffer (containing 40 μg/ml bacitracin, 4 μg/ml each of leupeptin and chymostatin, 0.1% bovine serum albumin and 10 mM each of thiorphan and LiCl) added. After 15 min, SP was added to UC11 cells or NKA to SKLKB82#3 cells at various concentrations to start the reaction. After incubation for 60 min at room temperature the reaction was terminated by addition of 930 μl chloroform: methanol (1:2 by volume) to each tube, followed by 310 μl chloroform and 310 μl doubly distilled water. Samples were vortexed, centrifuged, and 0.9 ml of the aqueous (top) phase removed and added to 2 ml ddH2 O. The mixture was vortexed and loaded onto a 50% Bio-Rad AG 1-X8 (formate form, 100-200 mesh) exchange column (Bio-Rad Laboratories, Hercules, Calif.). The columns were washed, in order, with: 1) 10 ml doubly distilled water, 2) 5 ml of 5 mM disodium tetraborate/60 mM sodium formate, and 3) 5 ml of 1M ammonium formate/0.1M formic acid. The third elution was collected and 1 ml counted in 7 ml scintillation fluid. A 50 μl aliquot of the organic (bottom) phase was removed, dried in a scintillation vial and counted in 7 ml scintillation fluid.
# The ratio of DPM in the aqueous phase aliquot (total inositol phosphates) to the DPM in the 50 μl organic phase aliquot (total [^3 H]inositol incorporated) was calculated for each sample. Data are expressed as a percent of agonist-induced accumulation of [^3 H]-inositol phosphates over basal levels. The ratios in the presence of test compound and/or standards were compared to the ratios for control samples (i.e. no stimulating agonist). Dose-response graphs were constructed and the abilities of the test compounds to inhibit tachykinin-induced phosphatidyinositol turnover determined with the aid of a computer program. […] Data is expressed as percent stimulation of total inositol phosphate accumulation over basal levels and normalized to the maximum response produced by SP. […] Schild analysis is performed using dose response curves (such as those presented in FIGS. 1a and 1b) to obtain a value indicative of the strength of a competitive antagonist and is expressed as the pA2, which is the negative logarithm of the molar concentration of antagonist which reduces the effect of a dose of agonist to one-half of that expected at the dose of agonist.
# NK-3 receptor = biological target: T2, NK-3 receptor (Cavia porcellus, UniProt P30098); test: Antagonism of iodinated eledoisin binding to NK3 receptor, guinea pig cerebral cortex
# T2 construct: evaluated in freshly collected guinea pig cerebral cortex; from tissue; host or cells: guinea pig cerebral cortex
# T2 sequence (P30098 1-440): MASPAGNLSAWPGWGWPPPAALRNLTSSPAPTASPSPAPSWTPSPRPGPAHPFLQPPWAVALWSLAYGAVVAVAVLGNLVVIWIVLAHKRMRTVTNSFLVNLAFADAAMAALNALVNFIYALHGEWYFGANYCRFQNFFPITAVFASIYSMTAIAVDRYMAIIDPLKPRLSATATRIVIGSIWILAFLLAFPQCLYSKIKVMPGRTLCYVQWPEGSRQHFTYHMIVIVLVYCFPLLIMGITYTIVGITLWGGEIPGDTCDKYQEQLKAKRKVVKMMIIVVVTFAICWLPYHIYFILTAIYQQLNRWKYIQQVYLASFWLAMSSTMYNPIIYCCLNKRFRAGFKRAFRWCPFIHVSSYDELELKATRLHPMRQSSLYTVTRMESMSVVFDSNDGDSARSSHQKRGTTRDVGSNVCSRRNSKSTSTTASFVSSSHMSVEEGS
# Method: ANTAGONISM OF IODINATED TACHYKININ BINDING TO NK1 AND NK2
# RECEPTORS BY PUTATIVE ANTAGONISTS
# The NK1 receptor affinity of proposed tachykinin antagonists was evaluated in guinea pig lungs (Keystone Biologicals, Cleveland, OH), affinity for the NK2 receptor evaluated in HSKR-1 cells (which are mouse 3T3 fibroblasts expressing the human jejunal NK2 receptor) and NK-3 receptor affinity was evaluated in freshly collected guinea pig cerebral cortex. Tissues or cells were homogenized with a Polytron in 15 volumes of 50 mM Tris-HCl buffer (pH 7.4, 4° C.) and centrifuged. The pellet was resuspended in Tris-HCl buffer and was centrifuged; the pellet was washed twice by resuspension. The final pellet was resuspended at a concentration of 40 mg/ml for tissues (guinea pig lung and cerebral cortex) and 20 mg/ml for cells in incubation buffer and remained at room temperature for at least 15 min prior to use. Receptor binding was initiated by addition of 250 ul membrane preparation in duplicate to 0.1 nM of the following radioligands: ^125 I-Bolton Hunter Lys-3 labeled substance P; ^125 iodohistidyl-1-neurokinin A; and ^125 I-Bolton Hunter labeled Lys-4 eledoisin in a final volume of 500 ul of buffer containing 50 mM Tris-HCl (pH 7.4 at room temperature), 0.1% bovine serum albumin, 2 mM MnCl2, 40 ug/ml bacitracin, 4 μg/ml leupeptin and chymostatin, 1 μM thiorphan and various doses of the putative tachykinin antagonists. Incubations were performed at room temperature for 90 min (NK1 receptor assays) or 2 hr (NK2 and NK3 receptor assays); binding was terminated by addition of 50 mM Tris-HCl buffer (pH 7.4, 4° C.) and filtration under vacuum through GF/B filters presoaked with 0.1% polyethyleneimine (NK1 receptor assays) or 0.5% bovine serum albumin (NK2 and NK3 receptor assays). Filter bound radioactivity was quantitated in a gamma counter. […] Specific binding was calculated by subtracting nonspecific binding from total binding. Competition of iodinated SP, NKA, or eledoisin binding by test compounds or standards was expressed as a percentage of this maximum competition. […]
# T1 sequence (P25103 whole entry): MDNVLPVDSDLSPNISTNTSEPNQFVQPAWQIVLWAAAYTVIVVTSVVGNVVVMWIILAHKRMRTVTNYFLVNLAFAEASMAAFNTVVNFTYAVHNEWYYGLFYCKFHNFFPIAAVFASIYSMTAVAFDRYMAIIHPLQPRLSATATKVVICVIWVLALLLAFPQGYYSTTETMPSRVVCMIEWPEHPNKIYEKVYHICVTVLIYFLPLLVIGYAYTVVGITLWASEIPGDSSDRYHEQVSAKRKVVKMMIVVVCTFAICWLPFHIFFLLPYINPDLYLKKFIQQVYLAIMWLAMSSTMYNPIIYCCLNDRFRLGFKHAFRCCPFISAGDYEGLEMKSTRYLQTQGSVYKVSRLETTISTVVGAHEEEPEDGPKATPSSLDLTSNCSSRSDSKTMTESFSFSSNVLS
SMILES,"antagonism of SP-induced PI turnover (in words) (NK1 receptor; UC11 cells, FIG. 1a)",agonist activity (stimulation of PI turnover by compound alone) (NK1 receptor; UC11 or SKLKB82#3 cells),affinity for NK3 receptors (in words) (NK-3 receptor; guinea pig cerebral cortex),"relative antagonism of NK1 and NK2 receptors (in words) (NK1 receptor; PI turnover, UC11 (NK1) versus SKLKB82#3 (NK2) cells)","Kb (NK1 receptor; UC11 cells, SP, Schild analysis, mean (95% confidence limits), 2-3 experiments, read-out: NK-1 receptor pA2 (converted))","IC50 (NK-3 receptor; NK-3 IC50, guinea pig cerebral cortex, 125I-eledoisin, mean of several experiments)"
"COc1cc(C(=O)N2CCC(CCN3CCC(C(N)=O)(c4ccccc4)CC3)(c3ccc(Cl)c(Cl)c3)C2)cc(OC)c1OC (stereo not drawn) [Example 3, 1-[2-[3-(3,4-dichloro-phenyl)-1-(3,4,5-trimethoxy-benzoyl)-pyrrolidin-3-yl]-ethyl]-4-phenyl-piperidine-4-carboxylic acid amide]",antagonizes both NK1 (on UC11 cells) and NK2 (on SKLKB82#3) receptors in a dose-dependent manner,no agonist activity,high affinity,–,–,–
"COc1cc(C(=O)N2CCC(CCN3CCC(C(N)=O)(c4ccccc4)CC3)(c3ccc(Cl)c(Cl)c3)C2)cc(OC)c1OC (single isomer, unassigned; (+)) [Example 20, (+)-1-[2-[3-(3,4-dichloro-phenyl)-1-(3,4,5-trimethoxy-benzoyl)-pyrrolidin-3-yl]-ethyl]-4-phenylpiperidine-4-carboxylic acid amide]",–,–,–,antagonized both NK1 and NK2 receptors by nearly equivalent amounts,6.46 nM,21 nM
